Like-named read-outs stand apart in the source and are kept apart here.
How the values were obtained:
[1] = system: H3K27me3 mark in HeLa cells; test: H3K27me3 MSD Hela Assay; type: cell-based; conditions: Homo sapiens, read-out: H3K27me3_MSD_HeLa_ (EC50)
In short: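 HeLa cells treated with compound at various concentrations for 96 h at 37 °C, then lysed with high-salt extraction. H3K27me3 measured by MSD electrochemiluminescence immunoassay on total-H3 capture plates. Dose-dependent inhibition normalised to DMSO wells and fitted to curves.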

[2] = biological target: Y641N EZH2 (Homo sapiens, UniProt Q15910, Y641N); test: Y641N EZH2 assay: as EZH2 assay, with reconstituted H3K27Me2 oligonucleosomes as substrate; type: biochemical
Sequence of Y641N EZH2 (Q15910 whole entry Y641N): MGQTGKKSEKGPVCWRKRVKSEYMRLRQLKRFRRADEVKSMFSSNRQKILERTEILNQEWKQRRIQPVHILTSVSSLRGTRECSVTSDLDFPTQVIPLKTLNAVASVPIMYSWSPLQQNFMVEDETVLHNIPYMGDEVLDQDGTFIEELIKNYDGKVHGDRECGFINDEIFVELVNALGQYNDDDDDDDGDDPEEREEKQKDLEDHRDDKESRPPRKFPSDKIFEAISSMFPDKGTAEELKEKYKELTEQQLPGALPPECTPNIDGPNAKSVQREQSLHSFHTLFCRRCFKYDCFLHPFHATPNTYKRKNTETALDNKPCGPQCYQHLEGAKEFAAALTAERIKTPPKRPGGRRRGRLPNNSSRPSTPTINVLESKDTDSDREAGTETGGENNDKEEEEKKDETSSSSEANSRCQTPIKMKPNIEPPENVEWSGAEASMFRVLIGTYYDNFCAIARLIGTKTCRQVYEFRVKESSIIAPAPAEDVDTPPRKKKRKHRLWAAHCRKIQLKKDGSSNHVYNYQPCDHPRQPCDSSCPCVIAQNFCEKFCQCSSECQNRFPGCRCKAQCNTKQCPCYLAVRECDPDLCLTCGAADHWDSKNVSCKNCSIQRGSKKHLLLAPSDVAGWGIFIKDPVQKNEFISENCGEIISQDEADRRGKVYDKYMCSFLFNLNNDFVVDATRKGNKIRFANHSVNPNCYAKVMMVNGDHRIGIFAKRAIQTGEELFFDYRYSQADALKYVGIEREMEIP
Sequence of Y641N EZH2 (O75530 whole entry partner): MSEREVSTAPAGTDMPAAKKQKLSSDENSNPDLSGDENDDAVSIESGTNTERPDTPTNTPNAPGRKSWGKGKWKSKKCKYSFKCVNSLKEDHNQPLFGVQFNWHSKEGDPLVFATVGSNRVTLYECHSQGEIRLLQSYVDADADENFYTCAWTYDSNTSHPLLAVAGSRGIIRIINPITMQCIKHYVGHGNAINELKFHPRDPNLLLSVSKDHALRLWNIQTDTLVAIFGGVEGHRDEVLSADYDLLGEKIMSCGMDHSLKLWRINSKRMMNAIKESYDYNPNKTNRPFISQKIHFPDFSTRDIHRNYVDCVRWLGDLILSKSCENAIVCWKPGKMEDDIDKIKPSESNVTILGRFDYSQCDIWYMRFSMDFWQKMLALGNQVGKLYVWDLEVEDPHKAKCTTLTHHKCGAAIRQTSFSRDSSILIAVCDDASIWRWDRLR
Sequence of Y641N EZH2 (Q15022 whole entry partner): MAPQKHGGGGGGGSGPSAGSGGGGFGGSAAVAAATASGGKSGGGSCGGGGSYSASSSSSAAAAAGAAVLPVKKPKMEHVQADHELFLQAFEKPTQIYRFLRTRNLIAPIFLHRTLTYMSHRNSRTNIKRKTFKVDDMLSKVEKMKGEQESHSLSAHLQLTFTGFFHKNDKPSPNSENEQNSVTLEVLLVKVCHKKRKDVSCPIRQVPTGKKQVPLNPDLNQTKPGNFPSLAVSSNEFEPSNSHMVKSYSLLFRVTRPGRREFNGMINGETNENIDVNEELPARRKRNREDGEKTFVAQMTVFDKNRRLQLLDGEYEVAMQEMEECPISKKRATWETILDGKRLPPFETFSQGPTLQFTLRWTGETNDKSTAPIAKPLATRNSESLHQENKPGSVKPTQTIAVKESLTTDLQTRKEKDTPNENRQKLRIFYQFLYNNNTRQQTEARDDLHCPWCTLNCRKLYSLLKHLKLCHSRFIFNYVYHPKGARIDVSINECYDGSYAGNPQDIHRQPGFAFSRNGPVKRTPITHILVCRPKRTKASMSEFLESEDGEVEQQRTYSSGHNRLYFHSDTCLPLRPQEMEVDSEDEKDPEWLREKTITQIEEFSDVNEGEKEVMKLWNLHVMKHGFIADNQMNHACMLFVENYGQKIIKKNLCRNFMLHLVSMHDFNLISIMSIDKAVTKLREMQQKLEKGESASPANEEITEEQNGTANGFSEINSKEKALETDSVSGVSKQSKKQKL

[3] = biological target: EZH2 (rPRC2) (Homo sapiens, UniProt Q15910); test: EZH2 assay: rPRC2, biotinylated oligonucleosomes, 3H SAM methyl transfer (FlashPlate scintillation); type: biochemical; conditions: biotinylated oligonucleosome substrate
Sequence of EZH2 (rPRC2) (Q15910 whole entry): as the sequence (Q15910 whole entry Y641N) above, with N641Y counted along it
Sequence of EZH2 (rPRC2) (O75530 whole entry partner): as the sequence (O75530 whole entry partner) above
Sequence of EZH2 (rPRC2) (Q15022 whole entry partner): as the sequence (Q15022 whole entry partner) above

[4] = Y641N EZH2 IC50, Y641N mutant EZH2, H3K27Me2 oligonucleosome substrate
[5] = EZH2 IC50, wild-type EZH2 (rPRC2)
[6] = Y641N mutant EZH2, H3K27Me2 oligonucleosome substrate, read-out: Y641N EZH2 IC50
[7] = wild-type EZH2 (rPRC2), read-out: EZH2 IC50

| Compound | EC50 ([1]; HeLa, 96 h) [µM] | IC50 [2, 4] [µM] | IC50 [3, 5] [µM] | IC50 [2, 6] [µM] | IC50 [3, 7] [µM] | EC50 ([1]; HeLa cells, MSD, 96 hours) [µM] |
| --- | --- | --- | --- | --- | --- | --- |
| COc1cc(C)[nH]c(=O)c1CNC(=O)c1c(C)n(C(C)C2CCN(C(=O)OC(C)(C)C)CC2)c2ccccc12 (single isomer, unassigned) [Compound 327, (R or S)-tert-butyl 4-(1-(3-((4-methoxy-6-methyl-2-oxo-1,2-dihydropyridin-3-yl)methylcarbamoyl)-2-methyl-1H-indol-1-yl)ethyl)piperidine-1-carboxylate] | < 0.4 | < 0.1 | < 0.1 |  |  |  |
| Cc1cc(C)c(CNC(=O)c2c(C)n([C@H](C)c3ccccc3)c3nc(N4CCOCC4)ncc23)c(O)n1 [Compound 143, (R)—N-((2-hydroxy-4,6-dimethylpyridin-3-yl)methyl)-6-methyl-2-morpholino-7-(1-phenylethyl)-7H-pyrrolo[2,3-d]pyrimidine-5-carboxamide] | 2 to 10 | 1 to 10 | < 0.1 |  |  |  |
| Cc1cc(C)c(CNC(=O)c2c(C)n([C@H](C)c3ccccc3)c3nc(N)ncc23)c(O)n1 [Compound 144, (R)-2-amino-N-((2-hydroxy-4,6-dimethylpyridin-3-yl)methyl)-6-methyl-7-(1-phenylethyl)-7H-pyrrolo[2,3-d]pyrimidine-5-carboxamide] | 2 to 10 | 0.1 to 1 | < 0.1 |  |  |  |
| Cc1cc(C)c(CNC(=O)c2c(C)n(S(=O)(=O)c3ccccc3)c3ccccc23)c(O)n1 [Compound 145, N-((4,6-dimethyl-2-oxo-1,2-dihydropyridin-3-yl)methyl)-2-methyl-1-(phenylsulfonyl)-1H-indole-3-carboxamide] | 2 to 10 |  |  | 0.1 to 1 | < 0.1 |  |
| Cc1cc(C)c(CNC(=O)c2c(C)n([C@H](C)c3ccccc3)c3nc(N4CCNCC4)ncc23)c(O)n1 [Compound 169, (R)-N-((2-hydroxy-4,6-dimethylpyridin-3-yl)methyl)-6-methyl-7-(1-phenylethyl)-2-(piperazin-1-yl)-7H-pyrrolo[2,3-d]pyrimidine-5-carboxamide] |  |  |  | 0.1 to 1 | < 0.1 | > 10 |
| Cc1ccc(C)c(-n2c(C)c(C(=O)NCc3c(C)cc(C)[nH]c3=O)c3ccccc32)c1 [Compound 191, N-((4,6-dimethyl-2-oxo-1,2-dihydropyridin-3-yl)methyl)-1-(2,5-dimethylphenyl)-2-methyl-1H-indole-3-carboxamide] |  |  |  | < 0.1 | < 0.1 | 2 to 10 |
| COCC(C)n1c(C)c(C(=O)NCc2c(OC)cc(C)[nH]c2=O)c2ccccc21 (stereo not drawn) [Compound 219, N-((4-methoxy-6-methyl-2-oxo-1,2-dihydropyridin-3-yl)methyl)-1-(1-methoxypropan-2-yl)-2-methyl-1H-indole-3-carboxamide] | 0.4 to 2 | < 0.1 | < 0.1 |  |  |  |
| COC(C)C(C)n1c(C)c(C(=O)NCc2c(C)cc(C)[nH]c2=O)c2cccnc21 (stereo not drawn) [Compound 241, N-((4,6-dimethyl-2-oxo-1,2-dihydropyridin-3-yl)methyl)-1-(3-methoxybutan-2-yl)-2-methyl-1H-pyrrolo[2,3-b]pyridine-3-carboxamide] | 0.4 to 2 | 0.1 to 1 | < 0.1 |  |  |  |
| COc1cc(C)[nH]c(=O)c1CNC(=O)c1c(C)n(C(C)C(OC)C2CC2)c2ncccc12 (stereo not drawn) [Compound 283, 1-(1-cyclopropyl-1-methoxypropan-2-yl)-N-((4-methoxy-6-methyl-2-oxo-1,2-dihydropyridin-3-yl)methyl)-2-methyl-1H-pyrrolo[2,3-b]pyridine-3-carboxamide] | 0.4 to 2 | 0.1 to 1 | < 0.1 |  |  |  |
| COC[C@@H](C)n1c(C)c(C(=O)NCc2c(OC)cc(C)[nH]c2=O)c2cncnc21 [Compound 303, (R)-N-((4-methoxy-6-methyl-2-oxo-1,2-dihydropyridin-3-yl)methyl)-7-(1-methoxypropan-2-yl)-6-methyl-7H-pyrrolo[2,3-d]pyrimidine-5-carboxamide] | 0.4 to 2 | 0.1 to 1 | < 0.1 |  |  |  |
